Article PMC6269914, “In Vitro Evaluation of Novel Inhibitors against the NS2B-NS3 Protease of Dengue Fever Virus Type 4” (Molecules, 2013)

target: T1, DENV4 NS2B-NS3pro (Dengue virus type 4, UniProt Q2YHF0, DELINS1442-1474GGGGSGGGG); experiment: In vitro inhibition assay of recombinant NS2B-NS3pro with fluorogenic AMC peptide substrate; format: biochemical, dengue virus type 4 (DENV4); conditions: inhibition activity at 100 μM, 1.65 µM AMC peptide substrate; Table 2
T1 sequence (Q2YHF0 1475-1660, added parts left off, stated change not applied): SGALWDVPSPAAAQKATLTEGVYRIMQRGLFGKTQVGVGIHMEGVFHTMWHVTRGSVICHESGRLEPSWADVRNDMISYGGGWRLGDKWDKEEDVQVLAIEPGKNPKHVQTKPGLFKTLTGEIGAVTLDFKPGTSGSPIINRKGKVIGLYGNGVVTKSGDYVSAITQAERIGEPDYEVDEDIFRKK

| Compound | Inhibition [%] |
| --- | --- |
| Cc1nnc2c(Nc3cccc(C(=O)O)c3)nc3ccc(C(=O)c4ccccc4)cc3n12 [Compound 5, 3-((8-benzoyl-1-methyl-[1,2,4]triazolo[4,3-a]quinoxalin-4-yl)amino)benzoic acid] | 58.8 |
| O=S(=O)(c1ccc(-c2csc(N3N=C(c4cccs4)CC3c3ccc(F)cc3)n2)cc1)N1CCCCC1 (centres unmarked) [Compound 12, 2-(5-(4-fluorophenyl)-3-(thiophen-2-yl)-4,5-dihydro-1H-pyrazol-1-yl)-4-(4-(piperidin-1-ylsulfonyl)phenyl)thiazole] | 85.2 |
| O=C(O)CCCNc1cc(N2CCCCCC2)c2noc3c2c1C(=O)c1ccccc1-3 [Compound 27, 4-((3-(azepan-1-yl)-6-oxo-6H-anthra[1,9-cd]isoxazol-5-yl)amino)butanoic acid] | 82.5 |
| O=C(NCCN1CCCCC1)c1cccc(Nc2ccc(-c3cccc(F)c3)nn2)c1 [Compound 29, 3-((6-(3-fluorophenyl)pyridazin-3-yl)amino)-N-(2-(piperidin-1-yl)ethyl)benzamide] | 66.6 |

same assay, conditions: primary inhibition assay at a 100 μM concentration of inhibitors; Table S1

| Compound | Inhibition Activity [%] |
| --- | --- |
| 1-(4-(2,5-dimethylphenyl)piperazin-1-yl)-4-(10-methylbis([1,2,4]triazolo)[4,3-a:1',5'-c]quinazolin-3-yl)butan-1-one [Compound 3] | 2.61 |
| 1-(5-(4-(4-(5-chloro-2-methylphenyl)piperazine-1-carbonyl)piperidin-1-yl)-1,3,4-thiadiazol-2-yl)pyrrolidin-2-one [Compound 18] | 0.15 |
| 2-(1-isobutyl-5,5-dimethyl-3-(naphthalen-1-yl)-2-oxoimidazolidin-4-yl)-4-(naphthalen-1-yl)-1,2,4-oxadiazolidine-3,5-dione [Compound 16] | 33.28 |
| 2-(3-fluorophenyl)-7-((2-(3-fluorophenyl)-4-oxo-4H-benzo[d][1,3]oxazin-6-yl)methyl)-4H-benzo[d][1,3]oxazin-4-one [Compound 36] | 34.33 |
| 2-((4aR,5R,5aR,8aR,9S)-2,6,8-trioxo-3,10-diphenyl-2,3,4a,5,5a,6,8a,9,9a,10-decahydro-5,9-methanothiazolo[5',4':5,6]thiopyrano[2,3-f]isoindol-7(8H)-yl)acetic acid [Compound 34] | 39.67 |
| 3,3'-(ethane-1,2-diyl)bis(2-(((7-chloro-4-oxo-4H-pyrido[1,2-a]pyrimidin-2-yl)methyl)thio)quinazolin-4(3H)-one) [Compound 35] | 48.66 |
| 3-(((1-methyl-1H-tetrazol-5-yl)thio)methyl)-7-(2-(5-methyl-4-nitro-1H-pyrazol-1-yl)acetamido)-8-oxo-5-thia-1-azabicyclo[4.2.0]oct-2-ene-2-carboxylic acid [Compound 17] | 23.01 |
| 4-(2,6-bis(3-hydroxyphenyl)-1,3,5,7-tetraoxo-1,2,3,5,6,7-hexahydropyrrolo[3,4-f]isoindole-4-carbonyl)benzoic acid [Compound 1] | 15.05 |
| 4-((4aR,5R,5aR,8aR,9S)-10-(4-(tert-butyl)phenyl)-2,6,8-trioxo-2,3,4a,5,5a,6,8a,9,9a,10-decahydro-5,9-methanothiazolo[5',4':5,6]thiopyrano[2,3-f]isoindol-7(8H)-yl)butanoic acid [Compound 11] | 12.46 |
| 5-(5,6-dibromo-1,3-dioxohexahydro-1H-4,7-methanoisoindol-2(3H)-yl)-2-morpholinobenzoic acid [Compound 13] | 5.55 |
| CCN(CC)CCn1c(NC(=O)c2ccc(Cn3nc([N+](=O)[O-])c(Cl)c3C)o2)nc2ccccc21 [Compound 2, 5-((4-chloro-5-methyl-3-nitro-1H-pyrazol-1-yl)methyl)-N-(1-(2-(diethylamino)ethyl)-1H-benzo[d]imidazol-2-yl)furan-2-carboxamide] | 95.23 |
| O=C1c2ccc(-n3c(=O)c4cc5c(=O)n(-c6ccc7c(c6)C(=O)N(c6ccccc6)C7=O)c(=O)c5cc4c3=O)cc2C(=O)N1c1ccccc1 [Compound 4, 2,6-bis(1,3-dioxo-2-phenylisoindolin-5-yl)pyrrolo[3,4-f]isoindole-1,3,5,7(2H,6H)-tetraone] | 4.64 |
| Cc1nnc2c(Nc3cccc(C(=O)O)c3)nc3ccc(C(=O)c4ccccc4)cc3n12 [Compound 5, 3-((8-benzoyl-1-methyl-[1,2,4]triazolo[4,3-a]quinoxalin-4-yl)amino)benzoic acid] | 58.83 |
| O=C(Nc1ccc(Br)cc1C(=O)c1ccccc1)c1cccc(Nc2nc(-c3ccccc3)c3cc(Br)ccc3n2)c1 [Compound 7, N-(2-benzoyl-4-bromophenyl)-3-((6-bromo-4-phenylquinazolin-2-yl)amino)benzamide] | 21.31 |
| COc1cccc(-n2nc(C(=O)NC3CCCCCC3)c3ccccc3c2=O)c1 [Compound 9, N-cycloheptyl-3-(3-methoxyphenyl)-4-oxo-3,4-dihydrophthalazine-1-carboxamide] | 23.33 |
| Cc1nc2sc(C(=O)c3ccc(-c4ccc(C(=O)c5sc6nc(C)c(C)c(C)c6c5N)cc4)cc3)c(N)c2c(C)c1C [Compound 10, [1,1'-biphenyl]-4,4'-diylbis((3-amino-4,5,6-trimethylthieno[2,3-b]pyridin-2-yl)methanone)] | 7.59 |
| O=S(=O)(c1ccc(-c2csc(N3N=C(c4cccs4)CC3c3ccc(F)cc3)n2)cc1)N1CCCCC1 (centres unmarked) [Compound 12, 2-(5-(4-fluorophenyl)-3-(thiophen-2-yl)-4,5-dihydro-1H-pyrazol-1-yl)-4-(4-(piperidin-1-ylsulfonyl)phenyl)thiazole] | 85.17 |
| CC(=O)N1N=C(c2cc(-c3ccccc3)nc3ccccc23)OC1c1ccc(C(=O)O)cc1 (centres unmarked) [Compound 14, 4-(3-acetyl-5-(2-phenylquinolin-4-yl)-2,3-dihydro-1,3,4-oxadiazol-2-yl)benzoic acid] | 98.15 |

| Compound | Inhibition Activity [%] |
| --- | --- |
| Cc1cccc(-c2nc3nc(C)cc(Nc4ccc(CC(=O)O)cc4)n3n2)c1 [Compound 15, 2-(4-((5-methyl-2-(m-tolyl)-[1,2,4]triazolo[1,5-a]pyrimidin-7-yl)amino)phenyl)acetic acid] | 17.36 |
| COC(=O)CSc1ncn(-c2nc(N3CCCCC3)nc(N3CCCCC3)n2)n1 [Compound 19, methyl 2-((1-(4,6-di(piperidin-1-yl)-1,3,5-triazin-2-yl)-1H-1,2,4-triazol-3-yl)thio)acetate] | 10.28 |
| O=C1c2ccccc2C(=O)N1c1cccc(-c2csc(N3N=C(c4ccccc4)CC3c3ccccc3)n2)c1 (centres unmarked) [Compound 21, 2-(3-(2-(3,5-diphenyl-4,5-dihydro-1H-pyrazol-1-yl)thiazol-4-yl)phenyl)isoindoline-1,3-dione] | 21.27 |
| Cc1nn(-c2ccccc2)c2c1nc(CCC(=O)NCCN1CCN(C)CC1)c(=O)n2C [Compound 24, 3-(3,7-dimethyl-6-oxo-1-phenyl-6,7-dihydro-1H-pyrazolo[3,4-b]pyrazin-5-yl)-N-(2-(4-methylpiperazin-1-yl)ethyl)propanamide] | 29.46 |
| Nc1nonc1-c1nc2ccccc2n1Cc1ccc(Cn2c(-c3nonc3N)nc3ccccc32)cc1 [Compound 25, 4,4'-(1,1'-(1,4-phenylenebis(methylene))bis(1H-benzo[d]imidazole-2,1-diyl))bis(1,2,5-oxadiazol-3-amine)] | 36.45 |
| O=C(O)CCCNc1cc(N2CCCCCC2)c2noc3c2c1C(=O)c1ccccc1-3 [Compound 27, 4-((3-(azepan-1-yl)-6-oxo-6H-anthra[1,9-cd]isoxazol-5-yl)amino)butanoic acid] | 82.53 |
| O=C(NCCN1CCCCC1)c1cccc(Nc2ccc(-c3cccc(F)c3)nn2)c1 [Compound 29, 3-((6-(3-fluorophenyl)pyridazin-3-yl)amino)-N-(2-(piperidin-1-yl)ethyl)benzamide] | 66.55 |
| C(=C\CSc1nnc(-c2ccccc2)c(-c2ccccc2)n1)/CSc1nnc(-c2ccccc2)c(-c2ccccc2)n1 [Compound 33, (E)-1,4-bis((5,6-diphenyl-1,2,4-triazin-3-yl)thio)but-2-ene] | 40.52 |
| (5,7-dimethyl-6-(3-methylbenzyl)pyrazolo[1,5-a]pyrimidin-3-yl)(4-(2,5-dimethylphenyl)piperazin-1-yl)methanone [Compound 6] | 8.61 |
| N2,N2-dimethyl-6-(((4-methyl-5-((2-methyl-5-nitro-1H-imidazol-1-yl)methyl)-4H-1,2,4-triazol-3-yl)thio)methyl)-1,3,5-triazine-2,4-diamine [Compound 31] | 6.49 |
| N-(1,5-dimethyl-3-oxo-2-phenyl-2,3-dihydro-1H-pyrazol-4-yl)-2-((5,9-dimethyl-[1,2,4]triazolo[4,3-a]quinolin-1-yl)thio)acetamide [Compound 26] | 28.11 |
| N-(1-benzyl-1H-benzo[d]imidazol-2-yl)-5-((3-nitro-1H-1,2,4-triazol-1-yl)methyl)furan-2-carboxamide [Compound 32] | 45.55 |
| N-(3-(4-cyclohexylpiperazin-1-yl)propyl)-1-(5-(2-oxopyrrolidin-1-yl)-1,3,4-thiadiazol-2-yl)piperidine-3-carboxamide [Compound 23] | 17.71 |
| N-(3-(4-ethylpiperazin-1-yl)propyl)-1-(5-(2-oxopyrrolidin-1-yl)-1,3,4-thiadiazol-2-yl)piperidine-3-carboxamide [Compound 30] | 1.3 |
| N-(3-(piperidin-1-yl)propyl)-1-(6-(p-tolyl)imidazo[2,1-b][1,3,4]thiadiazol-2-yl)piperidine-3-carboxamide [Compound 8] | 33.48 |
| N-(4-((2-(benzo[d][1,3]dioxol-5-yl)-1,3-dioxoisoindolin-5-yl)oxy)phenyl)-1-oxo-4-phenyl-1H-isochromene-3-carboxamide [Compound 20] | 28.87 |
| N-cycloheptyl-2,5-dimethyl-4-(4-(pyridin-2-yl)piperazin-1-yl)thieno[2,3-d]pyrimidine-6-carboxamide [Compound 28] | 32.84 |

target: T1, DENV4 NS2B-NS3pro; experiment: Inhibitor enzyme kinetics (Lineweaver-Burk and Dixon plots) against NS2B-NS3pro; format: biochemical, dengue virus type 4 (DENV4); conditions: AMC peptide substrates
Protocol: Inhibitory kinetic experiments were performed at different constant inhibitor concentrations and different substrate concentrations. Lineweaver–Burk and Dixon plots were used to analyze the inhibition modes of these compounds. Ki values were calculated from the Dixon plots.
The type of inhibition was determined using Lineweaver–Burk plots, and Ki values were determined with a Dixon plot (1/v as a function of [I], inhibitor concentration) from different inhibitor concentrations.

| Compound | Inhibition mode |
| --- | --- |
| CCN(CC)CCn1c(NC(=O)c2ccc(Cn3nc([N+](=O)[O-])c(Cl)c3C)o2)nc2ccccc21 [Compound 2, 5-((4-chloro-5-methyl-3-nitro-1H-pyrazol-1-yl)methyl)-N-(1-(2-(diethylamino)ethyl)-1H-benzo[d]imidazol-2-yl)furan-2-carboxamide] | competitive inhibitors |
| CC(=O)N1N=C(c2cc(-c3ccccc3)nc3ccccc23)OC1c1ccc(C(=O)O)cc1 (centres unmarked) [Compound 14, 4-(3-acetyl-5-(2-phenylquinolin-4-yl)-2,3-dihydro-1,3,4-oxadiazol-2-yl)benzoic acid] | competitive inhibitors |
